In ChEMBL document CHEMBL1147597, “Synthesis and biological evaluations of novel benzimidazoles as potential antibacterial agents” (Bioorg Med Chem Lett, 2004):
pIC50: −log10 of the molar value. In brackets after ≈: the same amount, converted by molar mass. Each block holds one molecule with its values, some of them ahead of it.

Experiments:
Escherichia coli [1] = assay: Minimal inhibitory concentration against Escherichia coli (Range is 50-100 uM); assay type: functional
Staphylococcus aureus [2] = assay: Minimal inhibitory concentration against Staphylococcus aureus (Range is 12-25 uM); assay type: functional
Escherichia coli [3] = assay: Minimal inhibitory concentration against Escherichia coli; assay type: functional
Staphylococcus aureus [4] = assay: In vitro minimal inhibitory concentration against Staphylococcus aureus.; assay type: functional
Staphylococcus aureus [5] = assay: Minimal inhibitory concentration against Staphylococcus aureus (Range is 50-100 uM); assay type: functional
Escherichia coli [6] = assay: Minimal inhibitory concentration against Escherichia coli (Range is 25-50 uM); assay type: functional
Staphylococcus aureus [7] = assay: Minimal inhibitory concentration against Staphylococcus aureus (Range is 25-50 uM); assay type: functional
Streptococcus pyogenes [8] = assay: Minimal inhibitory concentration against gram positive Streptococcus pyogenes 49399 strain (Range is 3-6 uM); assay type: functional
Bacteria = assay: Inhibitory activity against bacteria in the transcription/translation assay; assay type: functional, organism-based
Staphylococcus aureus [9] = assay: Minimal inhibitory concentration against gram positive Staphylococcus aureus 13709 strain (Range is 6-12 uM); assay type: functional
Escherichia coli [10] = assay: Minimal inhibitory concentration against Escherichia coli (Range is 12-25 uM); assay type: functional
Klebsiella pneumoniae [11] = assay: Minimal inhibitory concentration against gram negative Klebsiella pneumoniae 13383 strain (Range is 6-12 uM); assay type: functional
Escherichia coli [12] = assay: Minimal inhibitory concentration against gram negative Escherichia coli 25922 strain (Range is 12-25 uM); assay type: functional; conditions: ATCC25922
Enterococcus hirae [13] = assay: Minimal inhibitory concentration against gram positive Enterococcus hirae 29212 strain (Range is 1-3 uM); assay type: functional
Staphylococcus aureus [14] = assay: Minimal inhibitory concentration against Staphylococcus aureus (Range is 6-12 uM); assay type: functional
Streptococcus pneumoniae [15] = assay: Minimal inhibitory concentration against gram positive Streptococcus pneumoniae 6303 strain (Range is 6-12 uM); assay type: functional
Pseudomonas aeruginosa [16] = assay: Minimal inhibitory concentration against gram negative Pseudomonas aeruginosa 25416 strain (Range is 12-25 uM); assay type: functional
Streptococcus pyogenes [17] = assay: Minimal inhibitory concentration against gram positive Streptococcus pyogenes 49399 strain (Range is 6-12 uM); assay type: functional
Staphylococcus aureus [18] = assay: Minimal inhibitory concentration against Staphylococcus aureus (Range is 3-6 uM); assay type: functional
Streptococcus pneumoniae [19] = assay: Minimal inhibitory concentration against gram positive Streptococcus pneumoniae 6303 strain (Range is 12-25 uM); assay type: functional
Pseudomonas aeruginosa [20] = assay: Minimal inhibitory concentration against gram negative Pseudomonas aeruginosa 25416 strain (Range is 50-100 uM); assay type: functional
Proteus vulgaris [21] = assay: Minimal inhibitory concentration against gram negative Proteus vulgaris 8427 strain (Range is 50-100 uM); assay type: functional
Enterococcus hirae [22] = assay: Minimal inhibitory concentration against gram positive Enterococcus hirae 29212 strain (Range is 3-6 uM); assay type: functional
Staphylococcus aureus [23] = assay: Minimal inhibitory concentration against gram positive Staphylococcus aureus 13709 strain (Range is 3-6 uM); assay type: functional
Escherichia coli [24] = assay: Minimal inhibitory concentration against gram negative Escherichia coli 25922 strain; assay type: functional; conditions: ATCC25922
Escherichia coli [25] = assay: Minimal inhibitory concentration against gram negative Escherichia coli 25922 strain (Range is 25-50 uM); assay type: functional; conditions: ATCC25922
Streptococcus pyogenes [26] = assay: Minimal inhibitory concentration against gram positive Streptococcus pyogenes 49399 strain (Range is 25-50 uM); assay type: functional
Enterococcus hirae [27] = assay: Minimal inhibitory concentration against gram positive Enterococcus hirae 29212 strain (Range is 25-50 uM); assay type: functional
Klebsiella pneumoniae [28] = assay: Minimal inhibitory concentration against gram negative Klebsiella pneumoniae 13383 strain (Range is 25-50 uM); assay type: functional
Staphylococcus aureus [29] = assay: Minimal inhibitory concentration against Staphylococcus aureus (Range is 12-50 uM); assay type: functional
Proteus vulgaris [30] = assay: Minimal inhibitory concentration against gram negative Proteus vulgaris 8427 strain (Range is 25-50 uM); assay type: functional

SMILES: O=C1c2cc(Cl)c(Cl)cc2C(=O)N1CCCCCn1c(C2CCNCC2)nc2cc(Cl)c(Cl)cc21
MIC (Escherichia coli [1]): 100 µM (≈ 55.4 µg/mL)
MIC (Staphylococcus aureus [2]): 25 µM (≈ 13.9 µg/mL)

SMILES: O=C(Cn1c(C2CCNCC2)nc2cc(Cl)c(Cl)cc21)N/N=C/c1ccc[nH]1
MIC (Escherichia coli [3]): > 100 µM
MIC (Staphylococcus aureus [2]): 25 µM (≈ 10.5 µg/mL)

SMILES: O=C(O)CC/N=C(\S)NNC(=O)Cn1c(C2CCNCC2)nc2cc(Cl)c(Cl)cc21
MIC (Escherichia coli [3]): > 100 µM
MIC (Staphylococcus aureus [4]): > 100 µM

SMILES: O=C1c2ccc([N+](=O)[O-])cc2C(=O)N1CCCCCn1c(C2CCNCC2)nc2cc(Cl)c(Cl)cc21
MIC (Escherichia coli [1]): 100 µM (≈ 53 µg/mL)
MIC (Staphylococcus aureus [4]): > 100 µM

SMILES: Clc1cc2nc(C3CCNCC3)n(CCCCSc3[nH]cnc4ncnc3-4)c2cc1Cl
MIC (Escherichia coli [3]): > 100 µM
MIC (Staphylococcus aureus [4]): > 100 µM

SMILES: CN(C)c1ccc(N/C(S)=N/NC(=O)Cn2c(C3CCNCC3)nc3cc(Cl)c(Cl)cc32)cc1
MIC (Staphylococcus aureus [5]): 100 µM (≈ 52 µg/mL)
MIC (Escherichia coli [3]): > 100 µM

SMILES: Clc1cc2nc(C3CCNCC3)n(CCCn3c(C4CCNCC4)nc4cc(Cl)c(Cl)cc43)c2cc1Cl
MIC (Escherichia coli [6]): 50 µM (≈ 29 µg/mL)
MIC (Staphylococcus aureus [7]): 50 µM (≈ 29 µg/mL)

SMILES: Clc1cc2nc(C3CCNCC3)n(CCCCCCn3c(C4CCNCC4)nc4cc(Cl)c(Cl)cc43)c2cc1Cl
MIC (Streptococcus pyogenes [8]): 6 µM (≈ 3.73 µg/mL)
pIC50 (Bacteria): < 4.00
MIC (Staphylococcus aureus [9]): 12 µM (≈ 7.47 µg/mL)
MIC (Escherichia coli [10]): 25 µM (≈ 15.6 µg/mL)
MIC (Klebsiella pneumoniae [11]): 12 µM (≈ 7.47 µg/mL)
MIC (Escherichia coli [12]): 25 µM (≈ 15.6 µg/mL)
MIC (Enterococcus hirae [13]): 3 µM (≈ 1.87 µg/mL)
MIC (Staphylococcus aureus [14]): 12 µM (≈ 7.47 µg/mL)
MIC (Streptococcus pneumoniae [15]): 12 µM (≈ 7.47 µg/mL)
MIC (Pseudomonas aeruginosa [16]): 25 µM (≈ 15.6 µg/mL)

SMILES: O=C(Cn1c(C2CCNCC2)nc2cc(Cl)c(Cl)cc21)N/N=C/c1cc[n+]([O-])cc1
MIC (Escherichia coli [3]): > 100 µM
MIC (Staphylococcus aureus [4]): > 100 µM

SMILES: Clc1cc2nc(C3CCNCC3)n(CCCCCn3cnnc3)c2cc1Cl
MIC (Escherichia coli [3]): > 100 µM
MIC (Staphylococcus aureus [4]): > 100 µM

SMILES: O=C1c2ccccc2C(=O)N1CCn1c(C2CCNCC2)nc2cc(Cl)c(Cl)cc21
MIC (Escherichia coli [3]): > 100 µM
MIC (Staphylococcus aureus [4]): > 100 µM

SMILES: O=C1c2ccccc2C(=O)N1CCCCCCn1c(C2CCNCC2)nc2cc(Cl)c(Cl)cc21
MIC (Escherichia coli [3]): > 100 µM
MIC (Staphylococcus aureus [4]): > 100 µM

More lines, now with the values ahead:

MIC (Escherichia coli [3]): > 100 µM
MIC (Staphylococcus aureus [4]): > 100 µM
SMILES: O=C1c2cccc([N+](=O)[O-])c2C(=O)N1CCCCCn1c(C2CCNCC2)nc2cc(Cl)c(Cl)cc21

MIC (Staphylococcus aureus [5]): 100 µM (≈ 48.1 µg/mL)
MIC (Escherichia coli [3]): > 100 µM
SMILES: O=C(Cn1c(C2CCNCC2)nc2cc(Cl)c(Cl)cc21)NNC(=S)NCc1ccco1

MIC (Staphylococcus aureus [5]): 100 µM (≈ 48.8 µg/mL)
MIC (Escherichia coli [3]): > 100 µM
SMILES: O=C(Cn1c(C2CCNCC2)nc2cc(Cl)c(Cl)cc21)N/N=C/c1ccc2c(c1)OCCO2

MIC (Escherichia coli [3]): > 100 µM
MIC (Staphylococcus aureus [4]): > 100 µM
SMILES: O=S(=O)(NCCCCCn1c(C2CCNCC2)nc2cc(Cl)c(Cl)cc21)c1ccccc1

MIC (Escherichia coli [3]): > 100 µM
MIC (Staphylococcus aureus [7]): 50 µM (≈ 23 µg/mL)
SMILES: COc1cccc(/C=N/NC(=O)Cn2c(C3CCNCC3)nc3cc(Cl)c(Cl)cc32)c1

MIC (Escherichia coli [3]): > 100 µM
MIC (Staphylococcus aureus [4]): > 100 µM
SMILES: O=C(Cn1c(C2CCNCC2)nc2cc(Cl)c(Cl)cc21)NNC(=S)NCCCN1CCOCC1

MIC (Streptococcus pyogenes [17]): 12 µM (≈ 6.91 µg/mL)
MIC (Staphylococcus aureus [18]): 6 µM (≈ 3.45 µg/mL)
MIC (Streptococcus pneumoniae [19]): 25 µM (≈ 14.4 µg/mL)
pIC50 (Bacteria): < 4.00
MIC (Pseudomonas aeruginosa [20]): 100 µM (≈ 57.6 µg/mL)
MIC (Proteus vulgaris [21]): 100 µM (≈ 57.6 µg/mL)
MIC (Escherichia coli [3]): > 100 µM
MIC (Klebsiella pneumoniae [11]): 12 µM (≈ 6.91 µg/mL)
MIC (Enterococcus hirae [22]): 6 µM (≈ 3.45 µg/mL)
MIC (Staphylococcus aureus [23]): 6 µM (≈ 3.45 µg/mL)
MIC (Escherichia coli [24]): > 100 µM
SMILES: O=C(Cn1c(C2CCNCC2)nc2cc(Cl)c(Cl)cc21)N/N=C/c1c[nH]c2ccc(OCc3ccccc3)cc12

MIC (Escherichia coli [3]): > 100 µM
MIC (Staphylococcus aureus [4]): > 100 µM
SMILES: O=C(NCCCCCn1c(C2CCNCC2)nc2cc(Cl)c(Cl)cc21)c1ccccc1

MIC (Staphylococcus aureus [5]): 100 µM (≈ 45.6 µg/mL)
MIC (Escherichia coli [1]): 100 µM (≈ 45.6 µg/mL)
SMILES: Clc1cc2nc(C3CCNCC3)n(CCCCCn3cnc4ccccc43)c2cc1Cl

MIC (Escherichia coli [6]): 50 µM (≈ 26.9 µg/mL)
MIC (Staphylococcus aureus [2]): 25 µM (≈ 13.4 µg/mL)
SMILES: O=C(Cn1c(C2CCNCC2)nc2cc(Cl)c(Cl)cc21)NNC(=O)Nc1ccccc1-c1ccccc1

MIC (Escherichia coli [6]): 50 µM (≈ 25.4 µg/mL)
MIC (Staphylococcus aureus [2]): 25 µM (≈ 12.7 µg/mL)
SMILES: CSc1ccc(NC(=O)NNC(=O)Cn2c(C3CCNCC3)nc3cc(Cl)c(Cl)cc32)cc1

MIC (Escherichia coli [3]): > 100 µM
MIC (Staphylococcus aureus [7]): 50 µM (≈ 26.1 µg/mL)
SMILES: COc1cc(/C=N/NC(=O)Cn2c(C3CCNCC3)nc3cc(Cl)c(Cl)cc32)cc([N+](=O)[O-])c1O

MIC (Escherichia coli [25]): 50 µM (≈ 24.3 µg/mL)
MIC (Streptococcus pyogenes [26]): 50 µM (≈ 24.3 µg/mL)
MIC (Streptococcus pneumoniae [19]): 25 µM (≈ 12.1 µg/mL)
pIC50 (Bacteria): 4.60
MIC (Staphylococcus aureus [9]): 12 µM (≈ 5.82 µg/mL)
MIC (Pseudomonas aeruginosa [20]): 100 µM (≈ 48.5 µg/mL)
MIC (Enterococcus hirae [27]): 50 µM (≈ 24.3 µg/mL)
MIC (Escherichia coli [6]): 50 µM (≈ 24.3 µg/mL)
MIC (Klebsiella pneumoniae [28]): 50 µM (≈ 24.3 µg/mL)
MIC (Staphylococcus aureus [29]): 50 µM (≈ 24.3 µg/mL)
MIC (Proteus vulgaris [30]): 50 µM (≈ 24.3 µg/mL)
SMILES: O=C1c2ccccc2C(=O)N1CCCCCn1c(C2CCNCC2)nc2cc(Cl)c(Cl)cc21
